ChEMBL document CHEMBL1201862, “PubChem BioAssay data set” (2004)
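48-hour exposure; five concentrations; linearly interpolated endpoints. At the GI50, growth is halved.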 Calls of active or inactive are those of the source. No stated cut-off is given here; in the data, active = GI50 up to about 1.1 µM and inactive = higher.

Legend:
Experiment in all cases: NCI-60 cell line screen, 48 h
BT-549 = test system: BT-549
DMS-273 = test system: DMS-273
M19-MEL = test system: M19-MEL
DLD-1 = test system: DLD-1
LXFL 529 = test system: LXFL 529
KM-20L2 = test system: KM-20L2
RXF 631 = test system: RXF 631
DMS-114 = test system: DMS-114
XF498 = test system: XF498

Compound	GI50 (BT-549)	GI50 (M19-MEL)	GI50 (DLD-1)	further results
FC(F)(Sc1ncccn1)c1nc2ccccc2o1	> 100 µM (inactive)			
Cc1ccc(S(=O)(=O)N/N=C/C2(c3ccccc3)c3ccccc3-c3ccccc32)cc1	14.2 µM (inactive)			
CSc1nc(Cl)c2c(n1)Sc1nc3ccccc3n1C2O (stereo not drawn)	4.73 µM (inactive)			
Cc1occc1C(=S)Nc1ccc(Cl)c(C(=O)OC(C(C)C)C(C)C)c1	16.6 µM (inactive)			
CN1C(c2ccccc2)CC(=Nc2ccccc2)CC1c1ccccc1 (stereo not drawn)		4.58 µM (inactive)	10.6 µM (inactive)	GI50 (DMS-273): 8.79 µM (inactive); GI50 (LXFL 529): 4.46 µM (inactive); GI50 (KM-20L2): 13.3 µM (inactive); GI50 (RXF 631): 20.5 µM (inactive)
Cc1cc2cc3c(cc2c(-c2ccc(N)cc2)n1)OCO3	> 100 µM (inactive)			
CC1(C)OC(C(=O)Nc2cc3c4ccccc4ccc3c3ccccc23)C(C(=O)N2CCCCC2)O1 (stereo not drawn)	47 µM (inactive)			
O=c1[nH][nH]c(=O)n1Cc1ccccc1Cn1c(=O)[nH][nH]c1=O	> 100 µM (inactive)			
O=C(O)COc1c(Cl)cc(Cl)c2cccnc12	> 100 µM (inactive)			
O=Cc1cc([N+](=O)[O-])no1	> 100 µM (inactive)			
CC12O[Te]34OC1(C)C(C)(O3)C2(C)O4		13.5 µM (inactive)	15.3 µM (inactive)	GI50 (DMS-273): 16.4 µM (inactive); GI50 (DMS-114): 13.6 µM (inactive); GI50 (LXFL 529): 14.6 µM (inactive); GI50 (KM-20L2): 32.4 µM (inactive)
C[Si](C)(C)[C@@]1([Se]c2ccccc2)CC[C@@H]1C(=O)c1ccccc1		32.5 µM (inactive)	77.4 µM (inactive)	GI50 (DMS-273): 59.3 µM (inactive); GI50 (DMS-114): 38.5 µM (inactive); GI50 (LXFL 529): 65.6 µM (inactive); GI50 (KM-20L2): 71.8 µM (inactive); GI50 (RXF 631): > 100 µM (inactive)
CCc1ccccc1NC(=O)C1=C(C)NC(C)=C(C(=O)Nc2ccccc2CC)C1c1ccccc1Cl		> 100 µM (inactive)	> 100 µM (inactive)	GI50 (DMS-114): > 100 µM (inactive); GI50 (XF498): 0.152 µM (active); GI50 (LXFL 529): > 100 µM (inactive); GI50 (KM-20L2): > 100 µM (inactive)
CC(C)(Cl)C(Cl)CC/C(CBr)=C(\Cl)CBr (stereo not drawn)	1.75 µM (inactive)			
C/C=C/CC(S(=O)(=O)c1ccccc1)S(=O)(=O)c1ccccc1			> 100 µM (inactive)	GI50 (DMS-273): > 100 µM (inactive); GI50 (DMS-114): 14 µM (inactive); GI50 (XF498): > 100 µM (inactive); GI50 (KM-20L2): > 100 µM (inactive)
O=C(CCN1CCOCC1)C(=Cc1ccccc1)C(=O)CCN1CCOCC1		2.83 µM (inactive)	1.82 µM (inactive)	GI50 (DMS-273): 8.65 µM (inactive); GI50 (XF498): 4.29 µM (inactive); GI50 (KM-20L2): 9.16 µM (inactive)

Compound	GI50 (BT-549)	GI50 (M19-MEL)	GI50 (DLD-1)	further results
Cc1ccc2c(c1)SC1=Nc3sc4cc(C)ccc4[n+]3CN12	2.43 µM (inactive)			
Cc1cc(/N=N/c2ccc(/N=N/c3c(O)c(S(=O)(=O)O)cc4cc(S(=O)(=O)O)ccc34)cc2C)ccc1/N=N/c1ccc2cc(S(=O)(=O)O)cc(S(=O)(=O)O)c2c1		> 100 µM (inactive)	> 100 µM (inactive)	GI50 (DMS-273): 98.4 µM (inactive); GI50 (DMS-114): > 100 µM (inactive); GI50 (XF498): > 73.5 µM (inactive); GI50 (KM-20L2): 54.8 µM (inactive)
COC(C)(C)[C@@H](O)[C@H]1C[C@H](C)[C@@]2(CC[C@]3(C)[C@@H]2CC[C@@H]2[C@@]4(C)CC[C@@H](OC(C)=O)C(C)(C)[C@@H]4C[C@@H](OC4OC(COC(C)=O)C(O)C(O)C4O)[C@]23C)O1 (stereo partly drawn)	4.86 µM (inactive)			
Cc1nnc2n1N=C(c1cc(F)c(Cl)cc1Cl)/C(=C/c1ccc(Cl)cc1)S2	18.7 µM (inactive)			
COC1=CC(=O)c2nc3ccccc3c3ccnc1c23	14.6 µM (inactive)			
CN(C)c1cccc(OC(=O)NCCCl)c1		> 100 µM (inactive)	> 100 µM (inactive)	GI50 (DMS-273): > 100 µM (inactive); GI50 (DMS-114): > 100 µM (inactive); GI50 (XF498): > 100 µM (inactive)
CCOC(=O)C(Sc1ccccc1)c1c(OC)cc(=O)oc1/C=[N+](/[O-])c1ccc(N(C)C)cc1 (stereo not drawn)		19.8 µM (inactive)	28.1 µM (inactive)	GI50 (DMS-273): 14 µM (inactive); GI50 (DMS-114): 19.4 µM (inactive); GI50 (XF498): 14.6 µM (inactive); GI50 (LXFL 529): 14.1 µM (inactive); GI50 (KM-20L2): 31.8 µM (inactive)
Cc1sc2c(c1C)C(=O)c1cccn1-2	47.2 µM (inactive)			
O=C(Nc1ccccc1-c1nn(CN2CCNCC2)c(=S)n(CN2CCNCC2)c1=O)C(F)(F)F		17.9 µM (inactive)	16.5 µM (inactive)	GI50 (DMS-273): 18.1 µM (inactive); GI50 (DMS-114): 19.1 µM (inactive); GI50 (RXF 631): 20.7 µM (inactive)
CCCc1c(O)nc(Nc2nc3ccccc3[nH]2)[nH]c1=O	> 100 µM (inactive)			
CC1(C)N=C(N)N=C(N)N1c1cccc(OCc2cccc([N+](=O)[O-])c2)c1	> 53.1 µM (inactive)			
C/C(=N\Nc1nnc(S)n1N)c1c(O)cc(C)oc1=O		> 100 µM (inactive)	> 100 µM (inactive)	GI50 (LXFL 529): > 100 µM (inactive); GI50 (KM-20L2): > 100 µM (inactive)
CC(C)(C)c1ccc(S(=O)(=O)N2C(c3cccc(C4CC[C@@H](C(=O)O)N4S(=O)(=O)c4ccc(C(C)(C)C)cc4)c3)CC[C@H]2C(=O)O)cc1 (stereo partly drawn)	50 µM (inactive)			
Cc1c(/C=N/NC(=S)Nc2ccccc2)c(=O)n(-c2ccccc2)n1C	> 100 µM (inactive)			
O=C1CCc2cc3c(cc21)CC1(Cc2cc4c(cc2C1)CCCC4)C3	> 100 µM (inactive)			
C(=C\c1nccs1)/c1cccc(/C=C/c2nccs2)n1	> 50 µM (inactive)			
